Assays:
V599E Raf = V599E Raf (Homo sapiens, UniProt P15056, V600E); assay: Biochemical FRET assay, mutant Raf (phosphorylation of MEK); settings: 0.125 nM V599E Raf, 100 nM biotin-MEK, 25 μM ATP, read-out: Raf (mut) inhibition
Protocol: (1) Biochemical FRET Assay […]
Inhibitors were diluted 4-fold in 100% DMSO and added to a final concentration of 10 μM to 40 μM to a solution containing 100 nM biotin-MEK, 0.125 nM V599E Raf in 50 mM HEPES, pH 7.4, 60 mM NaCl, 3 mM MgCl2, 2 mM DTT, 0.25 mM MnCl2, 0.01% BSA, and 0.01% Tween-20 and incubated for 20 minutes at room temperature. The kinase reaction was started by the addition of 25 μM ATP to a final volume of 45 μl and allowed to progress for 60 minutes. The reaction was stopped with 15 mM EDTA and 20 nM Streptavidin-APC, 2.5 nM Polyclonal anti p-MEK1/2 (Ser217/221), 2.5 nM Eu-labeled anti-rabbit IgG were added in Lance detection buffer and 5% Superblock in PBS for a final volume of 100 μl. The detection reaction was incubated for 90 minutes at room temperature and then read on an Analyst plate reader using standard TR-FRET (time resolved fluorescence resonance energy transfer) settings for Eu and APC.
Compounds having an activity designated as “A” provided an IC50≦100 nM; compounds having an activity designated as “B” provided an IC50 of 100-1000 nM; and compounds having an activity designated as “C” provided an IC50 of 1000-10,000 nM.

[1] = system: phospho-ERK in melanoma derived WM-266-4 cells; assay: Mechanistic cellular assay for Raf kinase activity (phospho-ERK, Bio-Plex); type: cell-based; settings: Homo sapiens, treated 1-2 hr at 37° C., serum free medium, read-out: pERK EC50
Outline: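 WM-266-4 melanoma cells (wild-type/V600D BRaf) grown overnight in 10% FBS RPMI, then treated 1–2 h at 37 °C in serum-free RPMI with eight 3-fold dilutions of compound (from 5 mM DMSO stock, 1000× dilution). Lysate phospho-ERK1,2 quantified by Bio-Plex bead immunoassay.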

Chain of V599E Raf (P15056 whole entry V600E): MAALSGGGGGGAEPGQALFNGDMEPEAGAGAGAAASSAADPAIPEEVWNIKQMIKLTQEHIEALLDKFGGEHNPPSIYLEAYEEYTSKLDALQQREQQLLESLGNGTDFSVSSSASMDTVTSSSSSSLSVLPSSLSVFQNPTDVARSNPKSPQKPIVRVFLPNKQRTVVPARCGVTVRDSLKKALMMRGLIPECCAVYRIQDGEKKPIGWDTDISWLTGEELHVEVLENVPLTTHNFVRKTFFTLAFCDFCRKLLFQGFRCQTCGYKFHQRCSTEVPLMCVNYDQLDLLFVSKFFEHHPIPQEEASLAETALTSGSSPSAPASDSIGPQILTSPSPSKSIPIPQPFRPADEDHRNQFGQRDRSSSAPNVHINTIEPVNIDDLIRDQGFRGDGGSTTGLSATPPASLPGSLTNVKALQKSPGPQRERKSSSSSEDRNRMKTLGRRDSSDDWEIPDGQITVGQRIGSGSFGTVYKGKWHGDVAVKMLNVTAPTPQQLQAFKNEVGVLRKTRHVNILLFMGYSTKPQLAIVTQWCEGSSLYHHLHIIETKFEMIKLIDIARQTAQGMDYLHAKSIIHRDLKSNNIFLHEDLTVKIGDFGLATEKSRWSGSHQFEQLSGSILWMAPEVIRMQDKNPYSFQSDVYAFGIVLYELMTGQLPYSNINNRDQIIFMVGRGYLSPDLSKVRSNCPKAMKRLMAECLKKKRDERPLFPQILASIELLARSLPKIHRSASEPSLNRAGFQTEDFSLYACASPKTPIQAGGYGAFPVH

Compound	IC50 (V599E Raf)	EC50 [1]
C[C@@H](NC(=O)c1cc2c(cn1)ncn2C)c1cnc(Nc2ccc(C(F)(F)F)cc2)s1 [Example 4]	≤ 0.1 µM	≤ 0.1 µM
CC(NC(=O)c1cc2nc[nH]c2cn1)c1cnc(Nc2ccc(C(F)(F)F)cc2)s1 (centres unmarked) [Example 5]	≤ 0.1 µM	0.1 to 1 µM
CCn1cnc2cnc(C(=O)NC(C)c3cnc(Nc4ccc(C(F)(F)F)cc4)s3)cc21 (centres unmarked) [Example 6]	≤ 0.1 µM	≤ 0.1 µM
CC(NC(=O)c1cc2c(cn1)ncn2CCN(C)C)c1cnc(Nc2ccc(C(F)(F)F)cc2)s1 (centres unmarked) [Example 7]	≤ 0.1 µM	≤ 0.1 µM
C[C@@H](NC(=O)c1cc2c(cn1)ncn2C1CN(C(=O)OC(C)(C)C)C1)c1cnc(Nc2ccc(C(F)(F)F)cc2)s1 [Example 24]	≤ 0.1 µM	≤ 0.1 µM
CC(NC(=O)c1cc2c(cn1)ncn2CCO)c1cnc(Nc2ccc(C(F)(F)F)cc2)s1 (centres unmarked) [Example 25]	≤ 0.1 µM	0.1 to 1 µM
C[C@@H](NC(=O)c1cc2c(cn1)ncn2[C@@H]1CCNC1)c1cnc(Nc2ccc(C(F)(F)F)cc2)s1 [Example 26]	≤ 0.1 µM	0.1 to 1 µM
C[C@@H](NC(=O)c1cc2c(cn1)ncn2C1CNC1)c1cnc(Nc2ccc(C(F)(F)F)cc2)s1 [Example 27]	≤ 0.1 µM	0.1 to 1 µM
CCN1CC[C@@H](n2cnc3cnc(C(=O)N[C@H](C)c4cnc(Nc5ccc(C(F)(F)F)cc5)s4)cc32)C1 [Example 28]	≤ 0.1 µM	≤ 0.1 µM
C[C@@H](NC(=O)c1cc2c(cn1)ncn2[C@H]1CCN(C(=O)OC(C)(C)C)C1)c1cnc(Nc2ccc(C(F)(F)F)cc2)s1 [Example 29]	≤ 0.1 µM	≤ 0.1 µM
CCN1CC(n2cnc3cnc(C(=O)N[C@H](C)c4cnc(Nc5ccc(C(F)(F)F)cc5)s4)cc32)C1 [Example 30]	≤ 0.1 µM	≤ 0.1 µM
C[C@@H](NC(=O)c1cc2c(cn1)ncn2[C@H]1CCNC1)c1cnc(Nc2ccc(C(F)(F)F)cc2)s1 [Example 31]	≤ 0.1 µM	0.1 to 1 µM
CC(NC(=O)c1cc2c(cn1)ncn2C(CO)CO)c1cnc(Nc2ccc(C(F)(F)F)cc2)s1 (centres unmarked) [Example 32]	≤ 0.1 µM	1 to 10 µM
CCN1CC[C@H](n2cnc3cnc(C(=O)N[C@@H](C)c4cnc(Nc5ccc(C(F)(F)F)cc5)s4)cc32)C1 [Example 33]	≤ 0.1 µM	0.1 to 1 µM
CCNCCn1cnc2cnc(C(=O)NC(C)c3cnc(Nc4ccc(C(F)(F)F)cc4)s3)cc21 (centres unmarked) [Example 34]	≤ 0.1 µM	0.1 to 1 µM
CC(NC(=O)c1cc2c(cn1)ncn2C)c1cnc(Nc2ccc(C(F)(F)F)cc2)cn1 (centres unmarked) [Example 35]	≤ 0.1 µM	≤ 0.1 µM
C[C@@H](NC(=O)c1cc2ncn(C)c2cn1)c1ncc(C(=O)Nc2cc(C(F)(F)F)c(Cl)cn2)s1 [Example 41]	≤ 0.1 µM	0.1 to 1 µM
C[C@@H](NC(=O)c1cc2c(cn1)ncn2C)c1ncc(C(=O)Nc2cc(C(F)(F)F)c(Cl)cn2)s1 [Example 42]	≤ 0.1 µM	≤ 0.1 µM
CC(NC(=O)c1cc2c(cn1)ncn2C)c1ncc(C(=O)Nc2cc(C(C)(C)C)on2)s1 (centres unmarked) [Example 43]	≤ 0.1 µM	≤ 0.1 µM
CC(NC(=O)c1cncc(N)c1)c1ncc(C(=O)Nc2cc(C(F)(F)F)c(Cl)cn2)s1 (centres unmarked) [Example 44]	≤ 0.1 µM	1 to 10 µM
Cc1nc2cc(C(=O)N[C@H](C)c3ncc(C(=O)Nc4cc(C(F)(F)F)c(Cl)cn4)s3)ccc2[nH]1 [Example 49]	≤ 0.1 µM	0.1 to 1 µM

Continued, values first:

IC50 (V599E Raf)	EC50 [1]	Compound
0.1 to 1 µM	1 to 10 µM	Cc1cn(-c2cncc(C(=O)NC(C)c3ncc(C(=O)Nc4cc(C(F)(F)F)c(Cl)cn4)s3)c2)cn1 (centres unmarked) [Example 51]
≤ 0.1 µM	1 to 10 µM	Cc1nc2cc(C(=O)N[C@H](C)c3ncc(C(=O)Nc4cc(C(F)(F)F)c(Cl)cn4)s3)ccc2n1CCO [Example 52]
0.1 to 1 µM	1 to 10 µM	C[C@@H](NC(=O)c1ccc(N)cc1)c1ncc(C(=O)Nc2cc(C(F)(F)F)c(Cl)cn2)s1 [Example 54]
≤ 0.1 µM	1 to 10 µM	C[C@@H](NC(=O)c1ccc2[nH]c(CO)nc2c1)c1ncc(C(=O)Nc2cc(C(F)(F)F)c(Cl)cn2)s1 [Example 55]
≤ 0.1 µM	0.1 to 1 µM	C[C@@H](NC(=O)c1ccc2[nH]ccc2c1)c1ncc(C(=O)Nc2cc(C(F)(F)F)c(Cl)cn2)s1 [Example 56]
≤ 0.1 µM	1 to 10 µM	C[C@@H](NC(=O)c1ccc2[nH]nnc2c1)c1ncc(C(=O)Nc2cc(C(F)(F)F)c(Cl)cn2)s1 [Example 57]
≤ 0.1 µM	≤ 0.1 µM	C[C@@H](NC(=O)c1ccc2ncccc2c1)c1ncc(C(=O)Nc2cc(C(F)(F)F)c(Cl)cn2)s1 [Example 58]
0.1 to 1 µM	1 to 10 µM	C[C@@H](NC(=O)c1ccc2[nH]c(C(F)(F)F)nc2c1)c1ncc(C(=O)Nc2cc(C(F)(F)F)c(Cl)cn2)s1 [Example 62]
0.1 to 1 µM	1 to 10 µM	C[C@@H](NC(=O)c1ccc2ncccc2c1)c1cc(C(=O)Nc2cnc(C(C)(C)C)nc2N)no1 [Example 65]
0.1 to 1 µM	1 to 10 µM	C[C@@H](NC(=O)c1ccc2sccc2c1)c1ncc(C(=O)Nc2cc(C(F)(F)F)c(Cl)cn2)s1 [Example 67]
≤ 0.1 µM	1 to 10 µM	Cc1nc2cc(C(=O)N[C@H](C)c3ncc(C(=O)Nc4cc(C(F)(F)F)c(Cl)cn4)s3)ccc2n1C [Example 68]
≤ 0.1 µM	1 to 10 µM	C[C@@H](NC(=O)c1ccc2c(c1)OCCN2C)c1ncc(C(=O)Nc2cc(C(F)(F)F)c(Cl)cn2)s1 [Example 71]
≤ 0.1 µM	1 to 10 µM	CC(NC(=O)c1ccc2ncccc2c1)c1cnc(Nc2ccc(C(F)(F)F)cc2)s1 (centres unmarked) [Example 72]
≤ 0.1 µM	0.1 to 1 µM	CC(NC(=O)c1ccc2nccnc2c1)c1cnc(Nc2ccc(C(F)(F)F)cc2)s1 (centres unmarked) [Example 73]
≤ 0.1 µM	1 to 10 µM	CC(NC(=O)c1ccc2ncsc2c1)c1cnc(Nc2ccc(C(F)(F)F)cc2)s1 (centres unmarked) [Example 74]
≤ 0.1 µM	0.1 to 1 µM	CC(NC(=O)c1ccc2nc(N)sc2c1)c1cnc(Nc2ccc(C(F)(F)F)cc2)s1 (centres unmarked) [Example 75]
≤ 0.1 µM	1 to 10 µM	CC(NC(=O)c1ccc2ncn(C)c2c1)c1cnc(Nc2ccc(C(F)(F)F)cc2)s1 (centres unmarked) [Example 76]
≤ 0.1 µM	≤ 0.1 µM	CC(NC(=O)c1cc2nc[nH]c2cn1)c1ncc(C(=O)Nc2cc(C(F)(F)F)c(Cl)cn2)s1 (centres unmarked) [Example 77]
≤ 0.1 µM	0.1 to 1 µM	Cc1c(C(=O)NC(C)c2cnc(Nc3ccc(C(F)(F)F)cc3)s2)cnn1C (centres unmarked) [Example 82]
≤ 0.1 µM	0.1 to 1 µM	C[C@@H](NC(=O)c1cnn2ccccc12)c1ncc(C(=O)Nc2cc(C(F)(F)F)c(Cl)cn2)s1 [Example 86]
0.1 to 1 µM	1 to 10 µM	CC(NC(=O)c1cc(N)ccn1)c1ncc(C(=O)Nc2cc(C(F)(F)F)c(Cl)cn2)s1 (centres unmarked) [Example 87]
0.1 to 1 µM	0.1 to 1 µM	CC(NC(=O)c1ccnc(N2CCOCC2)c1)c1ncc(C(=O)Nc2cc(C(F)(F)F)c(Cl)cn2)s1 (centres unmarked) [Example 89]
≤ 0.1 µM	0.1 to 1 µM	C[C@@H](NC(=O)c1cccc(N2CCOCC2)n1)c1ncc(C(=O)Nc2cc(C(F)(F)F)c(Cl)cn2)s1 [Example 90]
0.1 to 1 µM	1 to 10 µM	C[C@@H](NC(=O)c1cccc(Br)n1)c1ncc(C(=O)Nc2cc(C(F)(F)F)c(Cl)cn2)s1 [Example 91]
≤ 0.1 µM	1 to 10 µM	C[C@@H](NC(=O)c1cccc(N)n1)c1ncc(C(=O)Nc2cc(C(F)(F)F)c(Cl)cn2)s1 [Example 92]
